The record followed here is the supplement of paper PMC10307832.

Common to all, as to experiment: relative viability (nuclei count vs DMSO), 5 days (fraction); higher = more cells survive
Compound in test [1]: O=C(c1cc(Cc2n[nH]c(=O)c3ccccc23)ccc1F)N1CCN(C(=O)C2CC2)CC1 [Olaparib] + Cc1cc(Nc2cc(N3CCN(C)CC3)nc(Sc3ccc(NC(=O)C4CC4)cc3)n2)n[nH]1 [Tozasertib] (partner 0.1 µM)
The procedure, abridged: (§1)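 Lung cancer cell lines, seeded in 1536-well plates, were treated the following day by pin tool with a single drug or with five library-drug doses (not always all listed) in √10 steps on top of a fixed anchor-drug dose. Cells were fixed and nuclei stained in one step after 5 days, and nuclei were counted. Relative viability is the nuclei count for treated wells divided by that for vehicle wells, reported as medians of duplicate plates.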

Compound in test [2]: CC(C)C[C@H](NC(=O)[C@H](CCc1ccccc1)NC(=O)CN1CCOCC1)C(=O)N[C@@H](Cc1ccccc1)C(=O)N[C@@H](CC(C)C)C(=O)[C@@]1(C)CO1 [Carfilzomib] + Nc1nc2[nH]cc(CCc3ccc(C(=O)N[C@@H](CCC(=O)O)C(=O)O)cc3)c2c(=O)[nH]1 [Pemetrexed] (partner 0.2 µM)
The procedure, abridged:
as §1

Compound in test [3]: C[C@@H](Oc1cc(-c2cnn(C3CCNCC3)c2)cnc1N)c1c(Cl)ccc(F)c1Cl [Crizotinib] + Nc1ncn([C@H]2C[C@H](O)[C@@H](CO)O2)c(=O)n1 [Decitabine] (partner 2 µM)
The gist of the method: as §1

Compound in test [4]: O=C(c1cc(Cc2n[nH]c(=O)c3ccccc23)ccc1F)N1CCN(C(=O)C2CC2)CC1 [Olaparib] + CS(=O)(=O)N1CCN(Cc2cc3nc(-c4cccc5[nH]ncc45)nc(N4CCOCC4)c3s2)CC1 [Pictilisib] (partner 1 µM)
The procedure, abridged:
as §1

Compound in test [5]: C[C@@H](Oc1cc(-c2cnn(C3CCNCC3)c2)cnc1N)c1c(Cl)ccc(F)c1Cl [Crizotinib] + COc1cccc2cc(-c3nc([C@H]4CC[C@H](C(=O)O)CC4)n4ncnc(N)c34)[nH]c12 [OSI-027] (partner 0.5 µM)
The gist of the method: as §1

Turning to NCI-H1793, the relative viability was 0.324 in test [1] (first compound 0.08 µM); 0.279 in test [1] (first compound 0.253 µM); 0.409 in test [1] (first compound 2.53 µM); 0.358 in test [1] (first compound 8 µM); 0.58 in test [2] (first compound 0.001 µM); 1.13 in test [2] (first compound 0.003162 µM). Moreover, the relative viability in test [2] (first compound 0.01 µM) came out at 0.861; in test [2] (first compound 0.03162 µM), 0.7; in test [2] (first compound 0.1 µM), 0.336; in test [3] (first compound 0.03162 µM), 0.522; in test [3] (first compound 0.1 µM), 0.53; in test [3] (first compound 1 µM) it was 0.555. For the same cell line, the relative viability in test [4] (first compound 0.08 µM) was 0.515; in test [4] (first compound 0.253 µM), 0.389; in test [4] (first compound 2.53 µM) it was 0.251; in test [4] (first compound 8 µM), 0.298; in test [5] (first compound 0.03162 µM), 0.256; in test [5] (first compound 0.1 µM), 0.278. In addition, the relative viability in test [5] (first compound 1 µM) came to 0.266.
